Source: US20230183323A1 (BROWN UNIVERSITY, priority 2020, published 2023)

Test system: pseudovirus containing S protein mutations D614G, E484K, United Kingdom, South African, Brazilian
Type: cell-based, SARS-CoV-2

rhCHI3L1: recombinant human CHI3L1 from a commercial source (R&D Inc.) or generated at Brown University
cellular integration of Spike proteins of SARS-Cov2 (% of GFP positive cells, FACS): stimulated
